Test results as given in patent US9573972B2, “Nurotoxic sterol glycosides” (priority 2008, dated 2017).
Entries after “also recorded” stand apart in the source; their conditions may differ.

Columns and labels:
[1] = system: Tyrosine Hydroxylase (dopaminergic cells); test: Tyrosine hydroxylase immunohistochemistry; assay type: in vivo, mouse; settings: striatum, SG-fed, either time-point
Method: Labelling of dopaminergic neurons in brain sections was identified by antibodies for tyrosine hydroxylase (Morrow, C. E., Bandstra, et al., (2001) Neurotoxicol Teratol. 23, 533-44) and indirect immunoperoxidase staining. Sections were incubated in blocking serum for 2 hours then with the primary antibody (rabbit anti-tyrosine hydroxylase, 1:500, Affinity Bioreagents, Golden, Colo., USA) for 3 hours at RT. Sections were rinsed and incubated in biotinylated goat anti-rabbit IgG (1:100; Vector laboratories Inc., Burlingame, USA) for 30 minutes at RT, then visualized using the ABC method (Vectastain Elite ABC kit, Vector Laboratories Inc.).
The numbers of immunoreactive somata or inclusions were counted across the ventral horn of the spinal cord, across brain hemispheres, or per dorsal or ventral root with the 40× objective lens in a 600 μm/600 μm area within region perimeters defined by a mouse brain atlas (2001). For each animal, eight cross-sections per spinal cord or brain region were studied. An average of both the right and left ventral horn for each of the eight cross sections was generated giving a final averaged number for each animal in each of the spinal cord areas. […]

[2] = system: Phosphorylated tau aggregates; test: Tau immunohistochemistry; assay type: in vivo, mouse; design: key to Phosphorylated tau aggregates: − = not present; + = present; settings: for Phosphorylated tau aggregates: SG-fed
Method: Slide-mounted lumbar and thoracic spinal cord and brain sections were first rinsed for 45 minutes in 3 changes of PBS then quenched in 3% H2O2 in PBST (PBS+0.5% Triton X-100) for 10 minutes. The slides were rinsed for 4 minutes in 2 changes of PBST. The MOM mouse Ig blocking reagent was prepared as per the manufacturer's instructions. Two drops of mouse Ig stock solution was added to 2.5 mL of PBS. The sections were incubated with this solution for 1 hour at RT. Following this step, sections were rinsed for 4 minutes in 2 changes of PBST and incubated (5 minutes) with the MOM diluent solution prepared by adding 600 V1 of MOM protein concentrate to 7.5 mL of PBS. The diluent was tipped off the slides and replaced by a solution comprised of primary phospho-Tau antibody diluted at 1:100 in the diluent solution prepared in the same manner as discussed above. The sections were incubated for 60 minutes at RT. Subsequently, sections were rinsed for 4 minutes in 2 changes of PBST and incubated for 10 minutes in the MOM biotinylated anti-mouse IgG reagent (10 V1 of MOM biotinylated anti-mouse IgG diluted in 2.5 mL of the MOM diluents). The sections were then rinsed in PBST and incubated (1 hour at RT) with the secondary antibody prepared by combining one drop of secondary antibody (biotinylated goat-anti-rabbit IgG) from the Vectastain ABC Elite kit (Vector Laboratories, Burlingame, Calif., USA) was combined with 3 drops of serum stock to 10 mL of PBST. At 30 minutes after start of slide incubation with the secondary antibody, an immunoperoxidase solution was prepared by adding 2 drops of reagent A and 2 drops of reagent B (Vectastain Elite ABC kit, Vector Laboratories, Burlingame, Calif., USA) to 2.5 mL of PBST. After one hour incubation of the slides with the secondary antibody solution, the slides were rinsed for 4 minutes in two changes of PBST and incubated for 30 minutes in the working immunoperoxidase solution. Next, the sections were rinsed for 4 minutes in 2 changes of PBST. During the rinses, the DAB liquid substrate was prepared for the next step. As per manufacturer's instructions, 2 drops of buffer stock solution, 5 mL of ddH2O, 4 drops of DAB stock solution, and 2 drops of hydrogen peroxide solution were combined. The slides were incubated for 3 minutes at RT with this DAB solution and monitored for color development. The sections were rinsed for 5 minutes in ddH2O to stop the reaction and rid slides of DAB substrate. A methyl green nuclear counterstain was used to elucidate nuclei and motor neuron somata. The 0.5% methyl green counterstain was prepared in the following manner: First, the sodium acetate buffer was prepared with 1.36 g of sodium acetate trihydrate to 100 mL of distilled water adjusted to pH 4.2 using glacial acetic acid. For every 100 mL of buffer, 0.5 g of methyl green (ethyl violet, Sigma-Aldrich, Oakville, ON, Canada) was added to make a 0.5% methyl green solution. Slide-mounted sections were stained in the above methyl green solution for 5 minutes at RT. Sections were rinsed in distilled water, until the water became clear. […]
The numbers of immunoreactive somata or inclusions were counted across the ventral horn of the spinal cord, across brain hemispheres, or per dorsal or ventral root with the 40× objective lens in a 600 μm/600 μm area within region perimeters defined by a mouse brain atlas (2001). […]

CC[C@H](/C=C/[C@@H](C)[C@H]1CC[C@H]2[C@@H]3CC=C4C[C@@H](O[C@@H]5O[C@H](CO)[C@@H](O)[C@H](O)[C@H]5O)CC[C@]4(C)[C@H]3CC[C@]12C)C(C)C [SG, Stigmasterol β-D-Glucopyranoside]
Decrease in tyrosine hydroxylase optical density in striata [1]: not significant | Apoptosis of phosphorylated-tau containing cells ([2]; SG-fed animals at 52 weeks): majority of the phosphorylated-tau containing cells were actively undergoing apoptosis | Phosphorylated tau aggregates ([2]; Time-point 1 (35 wk)): − | Phosphorylated tau aggregates ([2]; Time-point 2 (52 wk)): + | Phosphorylated tau aggregates, incidence in SG-fed group ([2]; Time-point 2 (52 wk)): 2/8 | Accumulation of phosphorylated tau ([2]; ventral horn of lumbar spinal cord, SG-fed mice, none in non-treated mice): induced accumulation of phosphorylated tau; also recorded: Phosphorylated Tau aggregates were observed
